The values that follow are results of earlier work, collected in patent US6011041A, “Use of anhydrovinblastine” (priority 1996, dated 2000).

One data set concerns tumour. The note with it: alkaloids extracted from Vinca rosea; cited from earlier work.
The conditions of data set [1]: humans; cited from earlier work.
Another data set relates to human rhabdosarcomas. The following applies: in vivo; cited from earlier work.

With `CC[C@]1(O)C[C@@H]2CN(CCc3c([nH]c4ccccc34)[C@@](C(=O)OC)(c3cc4c(cc3OC)N(C)[C@H]3[C@@](O)(C(=O)OC)[C@H](OC(C)=O)[C@]5(CC)C=CCN6CC[C@]43[C@@H]65)C2)C1` [vinblastine], the antitumour activity result in the data set with tumour was “significant antitumour activity”. Besides, in data set [1], the dose limiting toxicity result was “anemia and leucopenia”. In addition, the “activity in human rhabdosarcomas transplanted in nude mice” value in the data set with human rhabdosarcomas is “not active in this system”.
As for `CC[C@]12CN3CCc4c([nH]c5ccccc45)[C@@](C(=O)OC)(c4cc5c(cc4OC)N(C)[C@H]4[C@@](O)(C(=O)OC)[C@H](OC(C)=O)[C@]6(CC)C=CCN7CC[C@]54[C@@H]76)C[C@@H](C3)[C@H]1O2` [vinleurosine], the antitumour activity result with tumour is “significant antitumour activity”.
